Experimental data published in ChEMBL document CHEMBL4402589, “Discovery of a Potent and Selective NF-κB-Inducing Kinase (NIK) Inhibitor That Has Anti-inflammatory Effects in Vitro and in Vivo” (J Med Chem, 2020).
Calls of active or inactive are those of the source. No cut-off for these calls is given here.

Legend:
[1] = Half life in ICR mouse at 5 mg/kg, iv by LC-MS/MS analysis; type: ADME, organism-based; details: in vivo
[2] = Tmax in ICR mouse at 15 mg/kg, po by LC-MS/MS analysis; type: ADME, organism-based; details: in vivo
[3] = test system: Mus musculus; experiment: Antiinflammatory activity in CCl4-induced C57BL/6 mouse model of liver injury assessed as reduction in NOS2 mRNA expression in liver at 40 mg/kg, po administered 30 mins prior to CCl4 addition followed by compound redosing at 3 hrs interval for 9 hrs and measured 12 hrs […] by SYBR staining based RT-qPCR analysis; type: functional, organism-based
[4] = test system: Mus musculus; experiment: Antiinflammatory activity in CCl4-induced C57BL/6 mouse model of liver injury assessed as reduction in serum ALT level at 40 mg/kg, po administered 30 mins prior to CCl4 addition followed by compound redosing at 3 hrs interval for 9 hrs and measured 12 hrs […]; type: functional, organism-based
[5] = test system: Mus musculus; experiment: Antiinflammatory activity in CCl4-induced C57BL/6 mouse model of liver injury assessed as reduction in CCL5 mRNA expression in liver at 40 mg/kg, po administered 30 mins prior to CCl4 addition followed by compound redosing at 3 hrs interval for 9 hrs and measured 12 hrs […] by SYBR staining based RT-qPCR analysis; type: functional, organism-based
[6] = test system: Mus musculus; experiment: Antiinflammatory activity in CCl4-induced C57BL/6 mouse model of liver injury assessed as reduction in CXCL5 mRNA expression in liver at 40 mg/kg, po administered 30 mins prior to CCl4 addition followed by compound redosing at 3 hrs interval for 9 hrs and measured 12 hrs […] by SYBR staining based RT-qPCR analysis; type: functional, organism-based
[7] = biological target: Mitogen-activated protein kinase kinase kinase 14 (Mus musculus) (UniProt Q9WUL6); experiment: Inhibition of NIK in NIK adenovirus infected C57BL/6 mouse primary hepatocytes assessed as reduction in CCL5 mRNA expression measured after 16 hrs by SYBR staining based RT-qPCR analysis
Mitogen-activated protein kinase kinase kinase 14 (Mus musculus), sequence (Q9WUL6 whole entry): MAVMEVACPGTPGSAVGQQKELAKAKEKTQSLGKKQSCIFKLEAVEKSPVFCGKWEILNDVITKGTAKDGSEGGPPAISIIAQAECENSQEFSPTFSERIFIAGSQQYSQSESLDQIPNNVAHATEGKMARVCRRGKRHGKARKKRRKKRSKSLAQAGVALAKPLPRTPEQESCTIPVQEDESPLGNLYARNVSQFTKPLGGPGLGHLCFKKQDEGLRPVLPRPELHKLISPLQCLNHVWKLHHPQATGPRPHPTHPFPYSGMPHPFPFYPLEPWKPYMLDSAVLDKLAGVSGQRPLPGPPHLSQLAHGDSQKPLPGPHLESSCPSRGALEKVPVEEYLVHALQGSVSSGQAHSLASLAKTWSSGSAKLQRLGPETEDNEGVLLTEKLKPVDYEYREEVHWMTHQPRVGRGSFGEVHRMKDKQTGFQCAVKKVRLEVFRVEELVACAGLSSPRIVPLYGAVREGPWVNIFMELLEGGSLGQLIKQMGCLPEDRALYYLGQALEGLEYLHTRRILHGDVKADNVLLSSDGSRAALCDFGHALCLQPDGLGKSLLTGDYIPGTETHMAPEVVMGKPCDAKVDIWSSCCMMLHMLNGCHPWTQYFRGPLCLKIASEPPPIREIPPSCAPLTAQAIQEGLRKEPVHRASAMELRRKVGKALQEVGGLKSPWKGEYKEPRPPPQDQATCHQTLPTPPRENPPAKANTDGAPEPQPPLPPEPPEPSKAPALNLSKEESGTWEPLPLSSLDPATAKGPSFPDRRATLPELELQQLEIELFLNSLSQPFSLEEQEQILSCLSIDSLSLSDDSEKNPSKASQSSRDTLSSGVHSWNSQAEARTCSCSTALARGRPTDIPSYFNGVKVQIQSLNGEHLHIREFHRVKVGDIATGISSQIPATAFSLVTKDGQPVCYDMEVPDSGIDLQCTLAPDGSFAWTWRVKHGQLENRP

[8] = biological target: Mitogen-activated protein kinase kinase kinase 14 (Mus musculus) (UniProt Q9WUL6); experiment: Inhibition of NIK in NIK adenovirus infected C57BL/6 mouse primary hepatocytes assessed as reduction in TNFalpha mRNA expression measured after 16 hrs by SYBR staining based RT-qPCR analysis
[9] = test system: Hepatocyte; experiment: Down regulation of NIK expression in NIK/p100 adenoviruses infected C57BL/6 mouse primary hepatocytes at 1 to 10 uM measured after 16 hrs by Western blot analysis; type: functional, cell-based
[10] = biological target: T1, Mitogen-activated protein kinase kinase kinase 14 (Homo sapiens, UniProt Q99558); experiment: Inhibition of recombinant human N-terminal GST-tagged NIK (318 to 947 residues) expressed in baculovirus infected Sf9 cells using ultrapure ATP as substrate measured after 1 hr by ADP-glo assay
T1 sequence (Q99558 whole entry, the tested form may be a part): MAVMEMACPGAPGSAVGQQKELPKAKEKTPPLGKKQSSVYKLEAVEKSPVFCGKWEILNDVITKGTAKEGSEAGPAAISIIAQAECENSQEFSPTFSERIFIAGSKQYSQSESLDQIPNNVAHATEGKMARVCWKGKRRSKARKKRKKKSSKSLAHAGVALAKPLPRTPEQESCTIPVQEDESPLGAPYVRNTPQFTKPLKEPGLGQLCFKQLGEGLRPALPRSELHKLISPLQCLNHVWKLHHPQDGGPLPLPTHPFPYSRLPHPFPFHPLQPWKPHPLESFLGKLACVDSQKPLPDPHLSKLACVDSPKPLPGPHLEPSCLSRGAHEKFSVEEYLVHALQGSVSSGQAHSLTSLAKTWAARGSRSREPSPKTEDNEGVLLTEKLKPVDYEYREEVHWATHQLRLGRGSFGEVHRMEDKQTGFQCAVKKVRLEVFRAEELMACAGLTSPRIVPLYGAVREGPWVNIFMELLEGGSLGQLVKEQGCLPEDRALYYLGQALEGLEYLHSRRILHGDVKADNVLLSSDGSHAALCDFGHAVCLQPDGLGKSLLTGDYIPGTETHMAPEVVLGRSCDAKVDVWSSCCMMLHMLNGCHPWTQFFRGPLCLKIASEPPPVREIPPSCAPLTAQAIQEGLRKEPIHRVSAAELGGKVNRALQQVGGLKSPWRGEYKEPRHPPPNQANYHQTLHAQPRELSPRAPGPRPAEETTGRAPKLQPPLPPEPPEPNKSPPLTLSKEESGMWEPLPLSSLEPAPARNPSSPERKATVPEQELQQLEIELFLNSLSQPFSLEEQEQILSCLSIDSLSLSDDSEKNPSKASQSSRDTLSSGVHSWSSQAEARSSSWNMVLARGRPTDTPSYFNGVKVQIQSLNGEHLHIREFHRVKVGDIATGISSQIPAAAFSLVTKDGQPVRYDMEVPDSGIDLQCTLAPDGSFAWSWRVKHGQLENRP

[11] = biological target: Mitogen-activated protein kinase kinase kinase 14 (Mus musculus) (UniProt Q9WUL6); experiment: Inhibition of NIK in NIK/p100 adenoviruses infected C57BL/6 mouse primary hepatocytes assessed as suppression of NIK-mediated proteolysis of p100 to p52 by measuring reduction in p52 level measured after 16 hrs by Western blot analysis
[12] = biological target: Mitogen-activated protein kinase kinase kinase 14 (Mus musculus) (UniProt Q9WUL6); experiment: Inhibition of NIK in NIK adenovirus infected C57BL/6 mouse primary hepatocytes assessed as reduction in NOS2 mRNA expression measured after 16 hrs by SYBR staining based RT-qPCR analysis
[13] = AUC (0 to t) in ICR mouse at 15 mg/kg, po by LC-MS/MS analysis; type: ADME, organism-based; details: in vivo
[14] = test system: Mus musculus; experiment: Antiinflammatory activity in CCl4-induced C57BL/6 mouse model of liver injury assessed as reduction in CCL2 mRNA expression in liver at 40 mg/kg, po administered 30 mins prior to CCl4 addition followed by compound redosing at 3 hrs interval for 9 hrs and measured 12 hrs […] by SYBR staining based RT-qPCR analysis; type: functional, organism-based
[15] = Clearance in ICR mouse at 5 mg/kg, iv by LC-MS/MS analysis; type: ADME, organism-based; details: in vivo
[16] = Cmax in ICR mouse at 15 mg/kg, po by LC-MS/MS analysis; type: ADME, organism-based; design: dose 15 mg/kg, route oral; details: in vivo
[17] = Oral bioavailability in ICR mouse at 15 mg/kg by LC-MS/MS analysis; type: ADME, organism-based; details: in vivo
[18] = AUC (0 to t) in ICR mouse at 5 mg/kg, iv by LC-MS/MS analysis; type: ADME, organism-based; details: in vivo
[19] = Apparent volume of distribution in ICR mouse at 5 mg/kg, iv by LC-MS/MS analysis; type: ADME, organism-based; details: in vivo, read-out: Vz
[20] = Cmax in ICR mouse at 5 mg/kg, iv by LC-MS/MS analysis; type: ADME, organism-based; design: dose 5 mg/kg, route intravenous; details: in vivo
[21] = Tmax in ICR mouse at 5 mg/kg, iv by LC-MS/MS analysis; type: ADME, organism-based; details: in vivo
[22] = biological target: Mitogen-activated protein kinase kinase kinase 14 (Mus musculus) (UniProt Q9WUL6); experiment: Inhibition of NIK in NIK adenovirus infected C57BL/6 mouse primary hepatocytes assessed as reduction in CCL2 mRNA expression measured after 16 hrs by SYBR staining based RT-qPCR analysis
[23] = Half life in ICR mouse at 15 mg/kg, po by LC-MS/MS analysis; type: ADME, organism-based; details: in vivo
[24] = test system: Mus musculus; experiment: Antiinflammatory activity in CCl4-induced C57BL/6 mouse model of liver injury assessed as reduction in immune cell infiltration in liver at 40 mg/kg, po administered 30 mins prior to CCl4 addition followed by compound redosing at 3 hrs interval for 9 hrs and measured 12 hrs […] by F4/80/DAPI staining based immunofluorescence assay; type: functional, organism-based
[25] = biological target: Mitogen-activated protein kinase kinase kinase 14 (Mus musculus) (UniProt Q9WUL6); experiment: Inhibition of NIK in NIK adenovirus infected C57BL/6 mouse primary hepatocytes assessed as reduction in CXCL5 mRNA expression measured after 16 hrs by SYBR staining based RT-qPCR analysis
[26] = Stability of the compound in pH 1 aqueous solution; type: physicochemical; details: buffer
[27] = test system: Mus musculus; experiment: Antiinflammatory activity in CCl4-induced C57BL/6 mouse model of liver injury assessed as reduction in TNFalpha mRNA expression in liver at 40 mg/kg, po administered 30 mins prior to CCl4 addition followed by compound redosing at 3 hrs interval for 9 hrs and measured 12 hrs […] by SYBR staining based RT-qPCR analysis; type: functional, organism-based
[28] = biological target: T1, Mitogen-activated protein kinase kinase kinase 14; experiment: Binding affinity to wild-type human partial length NIK (L318 to P947 residues) expressed in mammalian expression system by Kinomescan method

Compound: C[C@@](O)(C#Cc1ccc(F)c(-c2c[nH]c3cnc(N)nc23)c1)c1nccs1
- half-life [1]: 3.28 h
- Tmax [2]: 0.3 h
- Activity [3]: Active
- Activity [4]: Active
- Activity [5]: Active
- Activity [6]: Active
- inhibition [7]: Dose-dependent effect
- inhibition [8]: Dose-dependent effect
- Activity [9]: inactive
- IC50 [10]: 9.1 nM
- inhibition [11]: Dose-dependent effect
- inhibition [12]: Dose-dependent effect
- AUC(0-t) [13]: 348 ng·h/mL
- Activity [14]: Active
- clearance [15]: 92.4 mL/min/kg
- Cmax [16]: 510 ng/mL
- bioavailability [17]: 13%
- AUC(0-t) [18]: 891 ng·h/mL
- Vd [19]: 26 L/kg
- Cmax [20]: 3040 ng/mL
- Tmax [21]: 4.8 min
- inhibition [22]: Dose-dependent effect
- half-life [23]: 12 h
- Activity [24]: Active
- inhibition [25]: Dose-dependent effect
- Stability [26]: Stable
- Activity [27]: Active
- Kd [28]: 4.9 nM
